# Assay results taken from patent publication US11999727B2 (Tango Therapeutics, Inc., priority 2020, dated 2024).
# What was measured:
# PRMT5 [1] = target: T1, PRMT5 (Homo sapiens, UniProt O14744); test: PRMT5 biochemical IC50 assay with SAM as cofactor; details: PRMT5, SAM as cofactor; read-out: SAM IC50
# T1 construct: purchased Viva (custom protein)
# PRMT5 [2] = target: T1, PRMT5; test: PRMT5 biochemical IC50 assay with no cofactor; details: PRMT5, no cofactor; read-out: No Cofactor/rel IC50
# Text: Table 1 indicates IC50 values (μM) against PRMT5 for exemplary compounds in the presence of SAM as cofactor, with no cofactor, and with MTA as cofactor, respectively (columns 4-6). […] Ki values can be calculated from the IC50 values as described in the Examples section. As detailed in the Examples section, for the assay performed in the presence of SAM, IC50=Ki×1.5 (Ki=IC50/1.5).
# PRMT5 [3] = target: T1, PRMT5; test: PRMT5 biochemical IC50 assay with MTA as cofactor; details: PRMT5, MTA as cofactor; read-out: MTA IC50
# [4] = system: HAP1 MTAP-intact cell line; test: SDMA in-cell western assay, HAP1 MTAP-intact; assay type: cell-based; details: Homo sapiens, HAP1, SDMA in-cell western, HAP1 MTAP-intact; read-out: MTAP HAP1 intact IC50
# Summary of the method: (§1)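 MTAP-null vs endogenous-MTAP HAP1 isogenic cells; in-cell western SDMA readout; IC50 per line.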
# [5] = system: HAP1 MTAP-deleted cell line; test: SDMA in-cell western assay, HAP1 MTAP-deleted; assay type: cell-based; details: for IC50: Homo sapiens, HAP1, SDMA in-cell western, HAP1 MTAP-deleted, read-out: HAP 1 MTAP deleted IC50; for MTAP intact/deleted ratio: IC50 ratio HAP1 MTAP-intact / HAP1 MTAP-deleted, SDMA in-cell western
# Summary of the method: as §1
# [6] = system: HAP1 MTAP-deleted cell line; test: Viability assay, MTAP-deleted cell line; assay type: cell-based; details: Homo sapiens, HAP1, viability assay, MTAP-deleted cell line; read-out: HAP1 MTAP deleted viability
# Text: Table 1 additionally indicates IC50 values in a viability assay for the MTAP-deleted cell line (column 10), indicating the effect of treatment with compound on cell survival.
# T1 sequence (O14744 whole entry): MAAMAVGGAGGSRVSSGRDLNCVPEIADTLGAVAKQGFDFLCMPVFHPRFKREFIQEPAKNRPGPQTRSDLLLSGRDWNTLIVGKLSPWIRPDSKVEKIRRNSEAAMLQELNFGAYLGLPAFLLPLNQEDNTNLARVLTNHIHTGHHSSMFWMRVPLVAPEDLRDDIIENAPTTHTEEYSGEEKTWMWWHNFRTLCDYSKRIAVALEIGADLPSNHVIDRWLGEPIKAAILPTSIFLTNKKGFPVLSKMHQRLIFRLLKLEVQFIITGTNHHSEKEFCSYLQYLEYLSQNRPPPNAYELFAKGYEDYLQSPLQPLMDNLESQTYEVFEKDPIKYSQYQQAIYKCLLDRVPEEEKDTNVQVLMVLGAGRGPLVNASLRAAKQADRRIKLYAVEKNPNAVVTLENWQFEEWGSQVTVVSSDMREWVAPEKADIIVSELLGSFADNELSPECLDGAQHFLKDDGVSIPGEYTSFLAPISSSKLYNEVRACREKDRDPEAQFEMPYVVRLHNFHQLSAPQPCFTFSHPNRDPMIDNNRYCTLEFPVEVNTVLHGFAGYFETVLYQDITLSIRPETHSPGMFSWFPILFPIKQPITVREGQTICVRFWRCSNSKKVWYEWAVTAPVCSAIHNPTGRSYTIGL
# T1 sequence (Q9BQA1 whole entry partner): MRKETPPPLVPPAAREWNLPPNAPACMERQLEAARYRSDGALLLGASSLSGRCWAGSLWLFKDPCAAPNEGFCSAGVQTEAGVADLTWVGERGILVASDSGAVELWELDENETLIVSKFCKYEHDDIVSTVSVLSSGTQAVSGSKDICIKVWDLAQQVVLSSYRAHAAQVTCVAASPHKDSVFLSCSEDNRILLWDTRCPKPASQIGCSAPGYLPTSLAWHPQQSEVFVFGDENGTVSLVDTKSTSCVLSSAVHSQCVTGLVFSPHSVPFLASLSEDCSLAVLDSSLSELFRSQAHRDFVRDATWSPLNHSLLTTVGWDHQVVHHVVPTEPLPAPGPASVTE
IC50 (PRMT5 [1]) [nM],IC50 (PRMT5 [2]) [nM],IC50 (PRMT5 [3]) [nM],IC50 [4] [nM],IC50 [5] [nM],Structure (SMILES),MTAP intact/deleted ratio [5],IC50 [6] [nM]
> 500,50 to 500,50 to 500,> 1000,< 100,"CCc1cc(NC(=O)C(=O)N2C[C@@H](C)CC[C@@H]2c2cnc3c(c2)CCC(=O)N3)cnc1N (racemic) [Compound 916, rac-N-(6-Amino-5-ethyl-3-pyridyl)-2-[(2S,5R)-5-methyl-2-(7-oxo-6,8-dihydro-5H-1,8-naphthyridin-3-yl)-1-piperidyl]-2-oxo-acetamide]",A (an IC50 ratio greater than or equal to 10 fold),1000 to 10000
50 to 500,50 to 500,50 to 500,> 1000,< 100,"Cc1cc(NC(=O)C(=O)N2C[C@H](C)CC[C@H]2c2ccc3sc(N)nc3c2)cnc1C (racemic) [Compound 920, 2-[(2R,5S)-2-(2-amino-1,3-benzothiazol-5-yl)-5-methyl-1-piperidyl]-N-(5,6-dimethyl-3-pyridyl)-2-oxo-acetamide]",A (an IC50 ratio greater than or equal to 10 fold),1000 to 10000
50 to 500,50 to 500,50 to 500,> 1000,100 to 1000,"Cc1cc(NC(=O)C(=O)N2C[C@H](C)CC[C@H]2c2cnc3c(c2)CCC(=O)N3)cnc1N (racemic) [Compound 923, rac-N-(6-Amino-5-methyl-3-pyridyl)-2-[(2S,5R)-5-methyl-2-(7-oxo-6,8-dihydro-5H-1,8-naphthyridin-3-yl)-1-piperidyl]-2-oxo-acetamide]",A (an IC50 ratio greater than or equal to 10 fold),1000 to 10000
50 to 500,50 to 500,50 to 500,> 1000,< 100,"COc1ncc(NC(=O)C(=O)N2C[C@H](C)CC[C@H]2c2ccc(C)cn2)cc1C(N)=O (racemic) [Compound 932, 2-Methoxy-5-[[2-[(2R,5S)-5-methyl-2-(5-methyl-2-pyridyl)-1-piperidyl]-2-oxo-acetyl]amino]pyridine-3-carboxamide]",A (an IC50 ratio greater than or equal to 10 fold),1000 to 10000
50 to 500,50 to 500,50 to 500,> 1000,100 to 1000,"Cc1ccc([C@H]2CC[C@H](C)CN2C(=O)C(=O)Nc2cncc(C(N)=O)c2)nc1 (racemic) [Compound 937, 5-[[2-[(2R,5S)-5-Methyl-2-(5-methyl-2-pyridyl)-1-piperidyl]-2-oxo-acetyl]amino]pyridine-3-carboxamide]",A (an IC50 ratio greater than or equal to 10 fold),1000 to 10000
50 to 500,50 to 500,50 to 500,> 1000,100 to 1000,"Cc1cc(NC(=O)C(=O)N2C[C@H](C)C[C@@H](F)[C@H]2c2ccc(F)cc2)cnc1N (racemic) [Compound 939, N-(6-amino-5-methyl-3-pyridyl)-2-[(2R,3R,5R)-3-fluoro-2-(4-fluorophenyl)-5-methyl-1-piperidyl]-2-oxo-acetamide]",A (an IC50 ratio greater than or equal to 10 fold),1000 to 10000
50 to 500,50 to 500,50 to 500,> 1000,100 to 1000,"Cc1cc(NC(=O)C(=O)N2C[C@H](C)C[C@H](F)[C@@H]2c2ccc(F)cc2)cnc1N (racemic) [Compound 940, N-(6-amino-5-methyl-3-pyridyl)-2-[(2R,3R,5S)-3-fluoro-2-(4-fluorophenyl)-5-methyl-1-piperidyl]-2-oxo-acetamide]",A (an IC50 ratio greater than or equal to 10 fold),1000 to 10000
50 to 500,50 to 500,50 to 500,100 to 1000,< 100,"Cc1cc(NC(=O)C(=O)N2C[C@H](C)CC[C@H]2c2ccsc2)cnc1N (racemic) [Compound 977, rac-N-(6-Amino-5-methyl-3-pyridyl)-2-[(2R,5S)-5-methyl-2-(3-thienyl)-1-piperidyl]-2-oxo-acetamide]",B (an IC50 ratio greater than or equal to 3 fold but lower than 10 fold),1000 to 10000
> 500,50 to 500,50 to 500,> 1000,100 to 1000,"Cc1ccc([C@H]2CC[C@@H](C)CN2C(=O)C(=O)Nc2cnc(N)c(C)c2)nc1 (racemic) [Compound 982, N-(6-amino-5-methyl-3-pyridyl)-2-[(2R,5R)-5-methyl-2-(5-methyl-2-pyridyl)-1-piperidyl]-2-oxo-acetamide]",B (an IC50 ratio greater than or equal to 3 fold but lower than 10 fold),> 10000
50 to 500,50 to 500,50 to 500,> 1000,100 to 1000,Cc1cc(NC(=O)C(=O)N2C[C@H](C)CC[C@H]2c2ccc(-c3nccs3)cn2)cnc1N (racemic) [Compound 991],C (an IC50 ratio of less than 3 fold),1000 to 10000
50 to 500,50 to 500,< 50,> 1000,< 100,Cc1cc(NC(=O)C(=O)N2C[C@H](C)CC[C@H]2c2ccc3[nH]c(N)nc3c2)cnc1C (racemic) [Compound 992],A (an IC50 ratio greater than or equal to 10 fold),1000 to 10000
> 500,50 to 500,50 to 500,> 1000,100 to 1000,"Cc1ccc([C@@H]2CC[C@@H](C)CN2C(=O)C(=O)Nc2cnc(N)c(C)c2)nc1 (racemic) [Compound 1005, N-(6-Amino-5-methyl-3-pyridyl)-2-[(2R,5S)-5-methyl-2-(5-methyl-2-pyridyl)-1-piperidyl]-2-oxo-acetamide]",A (an IC50 ratio greater than or equal to 10 fold),1000 to 10000
50 to 500,50 to 500,50 to 500,> 1000,< 100,Cc1cc(NC(=O)C(=O)N2C[C@H](C)CC[C@H]2c2ccc(F)c3[nH]ncc23)cnc1N (racemic) [Compound 1019],A (an IC50 ratio greater than or equal to 10 fold),1000 to 10000
> 500,50 to 500,50 to 500,> 1000,< 100,"Cc1cc(NC(=O)C(=O)N2C[C@H](C)CC[C@H]2c2cncc(Cl)c2)cnc1N (racemic) [Compound 1025, N-(6-amino-5-methyl-3-pyridyl)-2-[(2R,5S)-2-(5-chloro-3-pyridyl)-5-methyl-1-piperidyl]-2-oxo-acetamide]",A (an IC50 ratio greater than or equal to 10 fold),1000 to 10000
50 to 500,50 to 500,50 to 500,100 to 1000,< 100,"CC[C@@H]1CC[C@@H](c2cn[nH]c2)N(C(=O)C(=O)Nc2cnc(N)c(C)c2)C1 (racemic) [Compound 1032, N-(6-amino-5-methyl-3-pyridyl)-2-[(2R,5S)-5-ethyl-2-(1H-pyrazol-4-yl)-1-piperidyl]-2-oxo-acetamide]",B (an IC50 ratio greater than or equal to 3 fold but lower than 10 fold),1000 to 10000

Structure (SMILES),IC50 (PRMT5 [1]) [nM],IC50 (PRMT5 [2]) [nM],IC50 (PRMT5 [3]) [nM],IC50 [4] [nM],IC50 [5] [nM],MTAP intact/deleted ratio [5],IC50 [6] [nM]
"[2H][C@]1(c2ccc(F)cc2)CC[C@H](C)CN1C(=O)C(=O)Nc1cncc(C(N)=O)c1 (racemic) [Compound 1008, 5-(2-(2-(4-fluorophenyl)-5-methylpiperidin-1-yl-2-d)-2-oxoacetamido)nicotinamide]",50 to 500,50 to 500,50 to 500,> 1000,100 to 1000,A (an IC50 ratio greater than or equal to 10 fold),1000 to 10000
"[2H]c1c([2H])c([C@@]2([2H])CC[C@H](C)CN2C(=O)C(=O)Nc2cncc(C(N)=O)c2)c([2H])c([2H])c1F (racemic) [Compound 1010, 5-(2-(2-(4-fluorophenyl-2,3,5,6-d4)-5-methylpiperidin-1-yl-2-d)-2-oxoacetamido)nicotinamide]",50 to 500,50 to 500,50 to 500,> 1000,100 to 1000,A (an IC50 ratio greater than or equal to 10 fold),1000 to 10000
